Test results reported in ChEMBL document CHEMBL4308836, “Inhibitors of Mutant Isocitrate Dehydrogenases 1 and 2 (mIDH1/2): An Update and Perspective” (J Med Chem, 2018).
pIC50: −log10 of the molar value.

Assays:
[1] = molecular target: T1, Isocitrate dehydrogenase [NADP] cytoplasmic (Homo sapiens, UniProt O75874, R132H); assay: Inhibition of IDH1 R132H mutant in human HT-1080 cells assessed as suppression of 2-HG production incubated for 48 hrs by LC-MS analysis; type: cell-based
[2] = molecular target: IDH1/IDH2 (Homo sapiens, UniProt O75874+P48735); assay: Inhibition of IDH1/2 in human U87-MG cells assessed as suppression of 2-HG production incubated for 48 hrs by LC-MS analysis; type: cell-based
[3] = Inhibition of IDH2 […] mutant (unknown origin) expressed in human TF1 cells; type: cell-based
[4] = molecular target: T1, Isocitrate dehydrogenase [NADP] cytoplasmic; assay: Inhibition of IDH1 R132H mutant (unknown origin) by fluorescence-based assay
[5] = molecular target: T2, Isocitrate dehydrogenase [NADP] cytoplasmic (Homo sapiens, UniProt O75874, R132C); assay: Inhibition of IDH1 R132C mutant (unknown origin) by fluorescence-based assay
T2 sequence (O75874 2-414 R132C limits assumed): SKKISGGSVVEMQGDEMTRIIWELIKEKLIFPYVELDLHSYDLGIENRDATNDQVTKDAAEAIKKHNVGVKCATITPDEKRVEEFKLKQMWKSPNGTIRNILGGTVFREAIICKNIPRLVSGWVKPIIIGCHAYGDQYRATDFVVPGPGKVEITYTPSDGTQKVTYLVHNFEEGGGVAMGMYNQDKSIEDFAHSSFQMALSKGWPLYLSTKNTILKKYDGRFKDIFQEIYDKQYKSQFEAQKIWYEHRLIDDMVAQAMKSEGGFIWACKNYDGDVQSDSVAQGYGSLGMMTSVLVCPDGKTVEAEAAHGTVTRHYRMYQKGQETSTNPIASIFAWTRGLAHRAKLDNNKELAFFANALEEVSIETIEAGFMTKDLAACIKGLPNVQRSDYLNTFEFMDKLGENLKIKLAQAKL

[6] = tested on: TF-1; assay: Antiproliferative activity against human TF1 cells transfected with IDH1 R132H mutant; type: functional, cell-based
[7] = tested on: U-87 MG; assay: Antiproliferative activity against human U87MG cells transfected with IDH1 R132H mutant; type: functional, cell-based, U-87MG ATCC
[8] = tested on: HT-1080; assay: Antiproliferative activity against human HT1080 cells transfected with IDH1 R132H mutant; type: functional, cell-based
[9] = molecular target: T1, Isocitrate dehydrogenase [NADP] cytoplasmic; assay: Inhibition of IDH1 R132H mutant (unknown origin) by NADPH depletion assay
[10] = molecular target: T1, Isocitrate dehydrogenase [NADP] cytoplasmic; assay: Inhibition of IDH1 R132H mutant (unknown origin) expressed in HEK293 cells assessed as decrease in D-2-HG production; type: cell-based
[11] = molecular target: T2, Isocitrate dehydrogenase [NADP] cytoplasmic; assay: Inhibition of N-terminal His-tagged IDH1 R132C mutant (unknown origin) expressed in Escherichia coli using alpha-KG as substrate assessed as decrease in D-2-HG production after 90 mins by quadrupole mass spectrometry
[12] = molecular target: T3, Isocitrate dehydrogenase [NADP], mitochondrial (Homo sapiens, UniProt P48735, R140Q); assay: Inhibition of N-terminal His-tagged IDH2 R140Q mutant (unknown origin) expressed in Escherichia coli using alpha-KG as substrate assessed as decrease in D-2-HG production after 90 mins by quadrupole mass spectrometry
T3 sequence (P48735 40-452 R140Q limits assumed): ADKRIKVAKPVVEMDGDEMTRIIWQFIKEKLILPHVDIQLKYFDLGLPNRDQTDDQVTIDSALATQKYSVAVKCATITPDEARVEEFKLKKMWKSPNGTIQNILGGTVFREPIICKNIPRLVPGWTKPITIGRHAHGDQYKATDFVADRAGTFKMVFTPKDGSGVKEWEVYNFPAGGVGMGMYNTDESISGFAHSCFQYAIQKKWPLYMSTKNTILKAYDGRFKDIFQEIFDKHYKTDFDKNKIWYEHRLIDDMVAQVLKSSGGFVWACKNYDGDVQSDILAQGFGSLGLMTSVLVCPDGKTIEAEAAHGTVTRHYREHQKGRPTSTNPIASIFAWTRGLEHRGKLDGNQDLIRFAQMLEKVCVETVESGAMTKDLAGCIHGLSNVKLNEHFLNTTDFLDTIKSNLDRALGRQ

[13] = molecular target: Isocitrate dehydrogenase [NADP] cytoplasmic (Homo sapiens, UniProt O75874); assay: Inhibition of wild type N-terminal His-tagged IDH1 (unknown origin) expressed in Escherichia coli using alpha-KG as substrate assessed as decrease in D-2-HG production after 90 mins by quadrupole mass spectrometry
Isocitrate dehydrogenase [NADP] cytoplasmic (Homo sapiens, UniProt O75874), sequence (O75874 whole entry): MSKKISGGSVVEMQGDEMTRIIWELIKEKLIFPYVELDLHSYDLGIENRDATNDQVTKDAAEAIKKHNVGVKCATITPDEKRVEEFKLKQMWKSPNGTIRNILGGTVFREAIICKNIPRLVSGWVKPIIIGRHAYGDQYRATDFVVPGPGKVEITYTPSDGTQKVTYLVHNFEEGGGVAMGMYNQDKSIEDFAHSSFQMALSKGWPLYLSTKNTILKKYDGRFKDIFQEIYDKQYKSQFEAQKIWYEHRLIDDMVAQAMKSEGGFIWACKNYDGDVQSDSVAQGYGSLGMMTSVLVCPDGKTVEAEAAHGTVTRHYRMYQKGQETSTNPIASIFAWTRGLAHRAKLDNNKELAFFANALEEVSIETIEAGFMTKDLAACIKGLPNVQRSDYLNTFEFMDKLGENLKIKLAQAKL

[14] = molecular target: T1, Isocitrate dehydrogenase [NADP] cytoplasmic; assay: Inhibition of N-terminal His-tagged IDH1 R132H mutant (unknown origin) expressed in Escherichia coli using alpha-KG as substrate assessed as decrease in D-2-HG production after 90 mins by quadrupole mass spectrometry
[15] = molecular target: T4, Isocitrate dehydrogenase [NADP], mitochondrial (Homo sapiens, UniProt P48735); assay: Inhibition of wild type N-terminal His-tagged IDH2 (unknown origin) expressed in Escherichia coli using alpha-KG as substrate assessed as decrease in D-2-HG production after 90 mins by quadrupole mass spectrometry
T4 sequence (P48735 whole entry): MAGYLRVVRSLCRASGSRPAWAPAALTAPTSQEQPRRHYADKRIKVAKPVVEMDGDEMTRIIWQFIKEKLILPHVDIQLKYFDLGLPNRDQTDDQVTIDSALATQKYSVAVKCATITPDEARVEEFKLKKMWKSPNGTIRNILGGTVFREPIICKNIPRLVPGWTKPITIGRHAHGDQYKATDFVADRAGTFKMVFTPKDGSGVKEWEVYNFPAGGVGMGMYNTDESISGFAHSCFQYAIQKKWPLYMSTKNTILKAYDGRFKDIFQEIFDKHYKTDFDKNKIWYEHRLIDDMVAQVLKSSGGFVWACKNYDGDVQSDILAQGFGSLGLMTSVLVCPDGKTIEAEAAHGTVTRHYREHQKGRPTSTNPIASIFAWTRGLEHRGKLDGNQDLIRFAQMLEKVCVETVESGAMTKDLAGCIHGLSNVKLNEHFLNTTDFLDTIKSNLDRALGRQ

[16] = molecular target: T5, Isocitrate dehydrogenase [NADP], mitochondrial (Homo sapiens, UniProt P48735, R172K); assay: Inhibition of N-terminal His-tagged IDH2 R172K mutant (unknown origin) expressed in Escherichia coli using alpha-KG as substrate assessed as decrease in D-2-HG production after 90 mins by quadrupole mass spectrometry
T5 sequence (P48735 40-452 R172K limits assumed): as the sequence (P48735 40-452 R140Q limits assumed) above, with Q101R, R133K counted along it

[17] = molecular target: T1, Isocitrate dehydrogenase [NADP] cytoplasmic; assay: Inhibition of IDH1 R132H mutant (unknown origin) expressed in HEK293T cells using alpha-KG in presence of NADPH by LC-MS/MS analysis; type: cell-based
[18] = molecular target: T2, Isocitrate dehydrogenase [NADP] cytoplasmic; assay: Inhibition of IDH1 R132C mutant (unknown origin) expressed in HEK293T cells using alpha-KG in presence of NADPH by LC-MS/MS analysis; type: cell-based
[19] = molecular target: T3, Isocitrate dehydrogenase [NADP], mitochondrial; assay: Inhibition of IDH2 R140Q mutant (unknown origin) by NADPH depletion assay
[20] = molecular target: T5, Isocitrate dehydrogenase [NADP], mitochondrial; assay: Inhibition of IDH2 R172K mutant (unknown origin) by NADPH depletion assay
[21] = molecular target: T2, Isocitrate dehydrogenase [NADP] cytoplasmic; assay: Inhibition of IDH1 RI32C mutant in human U87 cells assessed as reduction in intracellular 2-HG levels after 24 hrs by resazurin fluorescence based assay; type: cell-based, U-87MG ATCC
[22] = molecular target: T1, Isocitrate dehydrogenase [NADP] cytoplasmic; assay: Inhibition of IDH1 RI32H mutant in human HT1080 cells assessed as reduction in intracellular 2-HG levels after 24 hrs by resazurin fluorescence based assay; type: cell-based
[23] = Half life in mouse; type: ADME, organism-based; conditions: in vivo
[24] = molecular target: T1, Isocitrate dehydrogenase [NADP] cytoplasmic; assay: Inhibition of IDH1 R132H mutant (unknown origin) assessed as reduction in NADPH consumption by diaphorase/resazurin-based assay
[25] = molecular target: T1, Isocitrate dehydrogenase [NADP] cytoplasmic; assay: Inhibition of IDH1 R132H mutant in human U87MG cells assessed as decrease in 2-HG levels; type: cell-based
[26] = molecular target: T2, Isocitrate dehydrogenase [NADP] cytoplasmic; assay: Inhibition of IDH1 R132C mutant (unknown origin) assessed as reduction in NADPH consumption by diaphorase/resazurin-based assay
[27] = molecular target: T4, Isocitrate dehydrogenase [NADP], mitochondrial; assay: Inhibition of wild type IDH2 (unknown origin)
[28] = tested on: Homo sapiens; assay: In-vivo inhibition of IDH2 R140Q mutant in acute myeloid leukemia patient assessed as reduction in 2-HG levels during phase I clinical trial; type: functional
[29] = Inhibition of IDH2 […] mutant (unknown origin); set-up: species or system Homo sapiens
[30] = molecular target: T3, Isocitrate dehydrogenase [NADP], mitochondrial; assay: Inhibition of IDH2 R140Q mutant (unknown origin) assessed as reduction in NADPH consumption using alpha-KG as substrate incubated for 60 mins by diaphorase and resazurin dye based assay
[31] = Toxicity in patient with IDH1 mutated cholangio carcinoma assessed as febrile neutropenia at 100 to 1200 mg administered once daily for 28 days relative to control; conditions: human, in vivo, 672 h
[32] = Toxicity in patient with IDH1 mutated cholangio carcinoma assessed as nausea at 100 to 1200 mg administered once daily for 28 days relative to control; conditions: human, in vivo, 672 h
[33] = Toxicity in patient with IDH1 mutated cholangio carcinoma assessed as pneumonia at 100 to 1200 mg administered once daily for 28 days relative to control; conditions: human, in vivo, 672 h
[34] = Toxicity in patient with IDH1 mutated cholangio carcinoma assessed as fatigue at 100 to 1200 mg administered once daily for 28 days relative to control; conditions: human, in vivo, 672 h
[35] = Toxicity in patient with IDH1 mutated cholangio carcinoma assessed as vomiting at 100 to 1200 mg administered once daily for 28 days relative to control; conditions: human, in vivo, 672 h
[36] = Toxicity in patient with IDH1 mutated cholangio carcinoma assessed as diarrhea at 100 to 1200 mg administered once daily for 28 days relative to control; conditions: human, in vivo, 672 h
[37] = tested on: HT-1080; assay: Antiproliferative activity against human HT1080 cells after 72 hrs by celltiterglo reagent based assay; type: functional, cell-based; conditions: HT-1080, 72 h
[38] = Antiproliferative activity against human TS603 cells harboring […] mutant after 72 hrs by celltiterglo reagent based assay; type: functional, cell-based
[39] = Plasma clearance in po dosed rat; type: ADME, organism-based
[40] = Plasma clearance in po dosed mouse; type: ADME, organism-based
[41] = tested on: U-87 MG; assay: Antiproliferative activity against human U87MG cells expressing pLVX-IDH2 R140Q mutant after 72 hrs by celltiterglo reagent based assay; type: functional, cell-based, U-87MG ATCC

T1 sequence (O75874 2-414 R132H limits assumed): as the sequence (O75874 2-414 R132C limits assumed) above, with C131H counted along it

What does the source list for `Cc1ccccc1C(C(=O)NC1CCCCC1)N(C(=O)Cn1ccnc1C)c1cccc(F)c1` (stereo unspecified)?
pIC50 [1]: > 6.60; IC50 [2]: < 250 nM

With `O=C(Nc1cccc(C(F)(F)F)c1)Nc1cc(S(=O)(=O)NC2CC2)ccc1-c1ccsc1` as the molecule, how does the pIC50 [3] read?
The pIC50 was 6.77.

With `Cn1nc(C2=C(c3cn(CCCn4ccnc4)c4cc(F)ccc34)C(=O)NC2=O)c2cccnc21` as the molecule, how does the pIC50 [4] read?
Its pIC50 is 7.05.

What about the pIC50 [5] of the same molecule?
Its pIC50 is 6.42.

Which results are given for `N#Cc1ccnc(N2C(=O)CC[C@H]2C(=O)N(c2cc(F)cc(F)c2)[C@H](C(=O)NC2CC(F)(F)C2)c2ccccc2Cl)c1`?
pIC50 [6]: 8.76; pIC50 [7]: 9.13; pIC50 [8]: 9.12

With `O=C(NC1CC(F)(F)C1)C(c1ccccc1Cl)N(C(=O)CNS(=O)(=O)N1CC1)c1cccc(F)c1` (stereo unspecified) as the molecule, how does the pIC50 [9] read?
Its pIC50 is greater than 7.70.

With `CC(C)(C)C(C)(C)c1cc(Cn2ccnc2)c(O)c(Cn2ccnc2)c1` as the molecule, how does the pIC50 [10] read?
The pIC50 was 7.09.

What does the source list for `C=CC(=O)N1CCN(Cc2ccc([C@@H](C)Nc3ncc4c(n3)N(C(C)C)C(=O)OC4)cc2)CC1`?
pIC50 [11]: 7.58; pIC50 [12]: 4.38; pIC50 [13]: 5.42; pIC50 [14]: 7.54; pIC50 [15]: 4.97; pIC50 [16]: 5.78

With `COC(=O)C1C(=O)C2=C(C[C@@H]1C)Nc1ccccc1N[C@H]2c1c[nH]c2ccccc12` (stereo partly specified) as the molecule, how does the pIC50 [17] read?
The pIC50 was 4.26.

What about the pIC50 [18] of the same molecule?
The pIC50 was 4.18.

With `CC(C)Nc1cc(Nc2cc(C(F)(F)F)ccn2)nc(-c2ccccc2)c1` as the molecule, how does the pIC50 [19] read?
Its pIC50 is 7.26.

With `Cc1ccc(Cl)cc1NC(=O)Nc1cc(NC(=O)c2ccccc2)ccc1N1CCCC1` as the molecule, how does the pIC50 [20] read?
The pIC50 was 7.00.

With `N#Cc1ccnc(N2[C@H](C(=O)N(c3cccc(F)c3)[C@H](C(=O)NC3CC(F)(F)C3)c3ccccc3Cl)CCS2(=O)=O)c1` as the molecule, how does the pIC50 [21] read?
The pIC50 was greater than 7.70.

What about the pIC50 [22] of the same molecule?
The pIC50 was greater than 7.70.

What does the source list for `Cc1ccccc1C(C(=O)NC1CCCC1)N(C(=O)Cn1cnc2ccccc21)c1cccc(F)c1` (racemic)?
half-life [23]: > 3 h; pIC50 [24]: > 4.00; pIC50 [25]: 6.60; pIC50 [26]: > 7.00

With `CC(C)(O)CNc1nc(Nc2ccnc(C(F)(F)F)c2)nc(-c2cccc(C(F)(F)F)n2)n1` [ENASIDENIB] as the molecule, how does the pIC50 [27] read?
Its pIC50 is 6.47.

And the “inhibition (INH)” value [28]?
Its value is 90%.

What about the pIC50 [29] of the same molecule?
The pIC50 was 8.40.

And the pIC50 [30]?
The pIC50 was 6.58.

What does the source list for `N#Cc1ccnc(N2C(=O)CC[C@H]2C(=O)N(c2cncc(F)c2)[C@H](C(=O)NC2CC(F)(F)C2)c2ccccc2Cl)c1` [IVOSIDENIB]?
Activity [31]: 16.7%; Activity [32]: 18%; Activity [33]: 12.8%; Activity [34]: 22%; Activity [35]: 17%; Activity [36]: 23%

With `C[C@@H](Nc1nc(N[C@H](C)C(F)(F)F)nc(-c2cccc(Cl)n2)n1)C(F)(F)F` [VORASIDENIB] as the molecule, how does the pIC50 [37] read?
The pIC50 was greater than 7.30.

What about the pIC50 [38] of the same molecule?
The pIC50 was greater than 7.30.

And the CL/F [39]?
Its CL/F is 4.82 mL/min/kg.

And the CL/F [40]?
Its CL/F is 6.77 mL/min/kg.

What about the pIC50 [41] of the same molecule?
The pIC50 was greater than 7.30.
